Assay results reported in patent US4256883A, “Pyridoza prostacyclin analogues and N-oxides thereof” (Research Corporation, priority 1979, dated 1981).
“Also recorded” adds a separate entry of the source. Read-outs that look alike come from different tables or passages of the source.

Key:
[1] = system: human and rabbit citrated platelet-rich plasma; test: Effects on platelet aggregation (citrated platelet-rich plasma, chronolog aggregometer, 37°); type: cell-based; settings: for Biological Activity: Platelet Aggregation (in words): inhibition of aggregation induced by 2 uM ADP, human and rabbit platelet-rich plasma, 37°
Procedure: Effects of prostacyclin analogs on platelet aggregation were evaluated using human and rabbit citrated platelet-rich plasma in a chronolog aggregometer at 37°.

[2] = system: isolated perfused cat coronary arteries; test: Effects on isolated perfused cat coronary arteries (perfusion pressure); settings: for Biological Activity: Cat Coronary Artery (in words): isolated perfused right coronary artery, 37° C., Krebs-Henseleit
Procedure: Effects of prostacyclin analogs on isolated perfused cat coronary arteries were measured as follows.
Cats of either sex (2.5-3.5 kg) were anesthetized with sodium pentobarbital (30 mg/kg) given intravenously. […] A 20-gauge stainless steel cannula was inserted into the right coronary artery via the coronary ostium. Distal to the cannula, approximately 1 cm of coronary artery was dissected free of surrounding tissue. The section of right coronary artery with the cannula in place was excised from the heart and immediately transferred to a constant flow perfusion apparatus.
The perfusion apparatus consists of a reservoir containing 20 ml of warm (37° C.) oxygenated (95% O2 +5% CO2) K-H solution which bathes the coronary artery and serves as recirculating perfusate. An increase in perfusion pressure indicates vasoconstriction, whereas a decrease in perfusion pressure signifies vasodilation. Following an initial 1 hr. equilibrium period, vascular responsiveness was established by adding 25 mM KCl. After washing with fresh K-H solution for 20-30 mins., the preparation achieved a relatively constant low basal tone. […] Fresh K-H dilutions of stock prostacyclin analog concentrations were added to the perfusate reservoir in 0.1-0.2 ml volumes.

[3] = background; Bundy, Tetrahedron Letters, 1371 (1978); cited from earlier work
[4] = system: blood platelet aggregation; settings: background statement, cited from earlier work
[5] = t1/2 in saline at 25°
[6] = system: blood vessels / arteries; settings: background statement; cited from earlier work
[7] = system: blood platelets and arteries; settings: prior-art analogues, comparison by inventors; cited from earlier work
[8] = Stability of free acid XXIV in aqueous solutions at 25° C.; type: physicochemical
Procedure: Free acid XXIV was stable in aqueous solutions at 25° C. for at least 30 days.

[9] = number in parentheses, not explained, natural prostacyclin = 1

6, 9-pyridaza prostacyclin, N-oxides [N-oxides XXV]
t1/2 Saline (25°): > 24 h | Biological Activity: Platelet Aggregation (in words) [1]: Small effect | Biological Activity: Cat Coronary Artery (in words) [2]: Small effect

7,8-dihydro-6,9-pyridaza prostacyclin [XXIII]
Biological Activity: Platelet Aggregation (in words) [1]: Inhibitor (Potent) | Biological Activity: Platelet Aggregation, number in parentheses [1, 9]: 0.1 | Biological Activity: Cat Coronary Artery (in words) [2]: Dilator (Potent) | Biological Activity: Cat Coronary Artery, number in parentheses [2, 9]: 0.1

CCCCC[C@H](O)/C=C/[C@@H]1[C@H]2CC(CCCCC(=O)O)=N[C@H]2C[C@H]1O [IV]
stability (in words) [3]: high stability | effect on blood platelet aggregation (in words) [4]: potency in inhibiting platelet aggregation

CCCCC[C@H](O)/C=C/[C@@H]1[C@H]2C/C(=C/CCCC(=O)O)O[C@H]2C[C@H]1O [Natural prostacyclin, 6,9α-oxido-11α,15α-dihydroxyprosta (Z)5, E(13)-dienoic acid]
half-life [5]: 0.0333 h | effect on blood vessels / arteries (in words) [6]: powerful action as a dilator of blood vessels | Biological Activity: Platelet Aggregation (in words) [1]: Inhibitor (Potent) | effect on blood platelet aggregation (in words) ([4]; listed as Prostacyclin): most potent inhibitor of blood platelet aggregation of all the prostaglandins discovered to date | effect on blood platelet aggregation (in words) ([4]; listed as prostacyclin): destroys platelet aggregates after they have formed | Biological Activity: Cat Coronary Artery (in words) [2]: Dilator (Potent)

CCCCC[C@H](O)/C=C/[C@H]1O[C@H]2C[C@H](O2)[C@@H]1C/C=C\CCCC(=O)O [Thromboxane A2]
effect on blood vessels / arteries (in words) [6]: powerful constrictor of arteries | effect on blood platelet aggregation (in words) [4]: causes platelet aggregation

CCCCC[C@H](O)/C=C/[C@@H]1[C@H]2CC(CCCCC(=O)O)O[C@H]2C[C@H]1O (stereo partly shown) [VI, dihydroprostacyclin]
biological activity relative to prostacyclin (in words) [7]: somewhat less, active; also recorded: less biological activity

CCCCC[C@H](O)/C=C/[C@@H]1[C@H]2CC(/C=C/CCC(=O)O)O[C@H]2C[C@H]1O (stereo partly shown) [VII, (4E)--isoprostacyclin]
biological activity relative to prostacyclin (in words) [7]: somewhat less, active; also recorded: less biological activity

CCCCC[C@H](O)/C=C/[C@@H]1[C@H]2CCC(CCCC(=O)O)=N[C@H]2C[C@H]1O [V]
stability (in words) [3]: high stability | effect on blood platelet aggregation (in words) [4]: potency in inhibiting platelet aggregation

CCCCC[C@H](O)/C=C/[C@@H]1c2cc(CCCCC(=O)O)nnc2C[C@H]1O [XXIV, 6,9-pyridaza prostacyclin, free acid]
half-life [5]: > 24 h | Stability in aqueous solutions (stable for at least) [8]: at least 30 days | Biological Activity: Platelet Aggregation (in words) [1]: Inhibitor (Potent) | Biological Activity: Cat Coronary Artery (in words) [2]: Dilator (Potent)
